Assay results published in patent US10294202B2, “Pyrrolidinones as herbicides” (FMC Corporation, priority 2013, dated 2019).

What was measured:
ragweed = test: Test C pre-/postemergence herbicide test; assay type: in vivo, Ambrosia elatior
In short: (§1)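 Herbicidal effect was judged by eye 13 to 15 days after treatment in the greenhouse, using a 0–100 scale against controls. Chemicals in a non-phytotoxic solvent with surfactant were sprayed onto planted loam/sand soil or onto plants 2 to 18 cm tall in a peat-based growing medium.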

wheat = test: Test A pre-/postemergence herbicide test; assay type: in vivo, Triticum aestivum; settings: Postemergence
In short: (§2)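 Both application timings used compounds in a non-phytotoxic solvent plus surfactant. Pre-emergence: soil sprayed directly after seeding into loam/sand. Post-emergence: foliage of 2–10 cm seedlings (1–2 leaves) sprayed. Injury rated ~10 days later, 0–100.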

oilseed rape = test: Test C pre-/postemergence herbicide test; assay type: in vivo, Brassica napus
In short: as §1

waterhemp = test: Test C pre-/postemergence herbicide test; assay type: in vivo, Amaranthus rudis
In short: as §1

ducksalad = test: Test B flooded paddy test; assay type: in vivo, Heteranthera limosa; settings: 500 g ai/ha, Flood; scale of 0 to 100 where 0 is no effect and 100 is complete control
In short: (§3)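 Plants grown to 2-leaf stage; pots flooded 3 cm above soil and compound applied directly into paddy water, depth held throughout. Visual rating against untreated controls after 13 to 15 days in greenhouse, 0 (no effect) to 100 (complete control).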

soybean = test: Test C pre-/postemergence herbicide test; assay type: in vivo, Glycine max
In short: as §1

pigweed = test: Test A pre-/postemergence herbicide test; assay type: in vivo, Amaranthus retroflexus; settings: for Plant response rating, Pigweed: 0 to 100 scale
In short: as §2

giant foxtail = test: Test A pre-/postemergence herbicide test; assay type: in vivo, Setaria faberii; settings: for Plant response rating, Foxtail, Giant: 0 to 100 scale
In short: as §2

oat, wild = test: Test C pre-/postemergence herbicide test; assay type: in vivo, Avena fatua; settings: Postemergence
In short: as §1

sedge, umbrella = test: Test B flooded paddy test; assay type: in vivo, Cyperus difformis; settings: 500 g ai/ha, Flood; scale of 0 to 100 where 0 is no effect and 100 is complete control
In short: as §3

wheat (winter wheat) = test: Test C pre-/postemergence herbicide test; assay type: in vivo, Triticum aestivum
In short: as §1

nutsedge, yellow = test: Test C pre-/postemergence herbicide test; assay type: in vivo, Cyperus esculentus
In short: as §1

[1] = Postemergence, 31 g ai/ha, scale 0 to 100 (0 no effect, 100 complete control)
[2] = Postemergence, 62 g ai/ha, scale 0 (no effect) to 100 (complete control)
[3] = Postemergence, 125 g ai/ha, scale 0 to 100 (0 no effect, 100 complete control)
[4] = Postemergence, 250 g ai/ha, scale 0 to 100 (0 no effect, 100 complete control)
[5] = Preemergence, 31 g ai/ha, scale 0 to 100, 0 is no effect and 100 is complete control
[6] = Preemergence, 62 g ai/ha, scale 0 to 100
[7] = Preemergence, 125 g ai/ha, scale 0 to 100 (0 no effect, 100 complete control)
[8] = 125 g ai/ha, visual rating, 0 no effect, 100 complete control, approximately 10 days, preemergence
[9] = Postemergence, 125 g ai/ha, 0 no effect, 100 complete control

O=C1NCC(c2ccc(F)cc2)C1C(=O)Nc1ccc(F)c(F)c1F (racemic) [Compound 120]
85: Plant response rating (scale of 0 to 100), Waterhemp (waterhemp; Preemergence, 250 g ai/ha) | Plant response rating (scale of 0 to 100), Wheat (wheat (winter wheat); Preemergence, 250 g ai/ha)
0: Ragweed plant response rating (ragweed; [5]) | Plant response rating, Oilseed Rape (oilseed rape; [1]) | Plant response rating, Oilseed Rape (oilseed rape; [2]) | Plant response rating, Oilseed Rape (oilseed rape; [3]) | Plant response rating, Oilseed Rape (oilseed rape; [4]) | Oilseed Rape plant response rating (oilseed rape; [5]) | Plant response rating, Oilseed Rape (oilseed rape; [6]) | Plant response rating, Waterhemp (waterhemp; [1]) | Plant response rating, Waterhemp (waterhemp; [2]) | Waterhemp plant response rating (waterhemp; [5]) | Plant response rating, Soybean (soybean; [1]) | Plant response rating, Soybean (soybean; [2]) | Plant response rating, Soybean (soybean; [3]) | Plant response rating, Soybean (soybean; [4]) | Soybean plant response rating (soybean; [5]) | Plant response rating, Soybean (soybean; [6]) | Plant response rating, Soybean (soybean; [7]) | Plant response rating (scale of 0 to 100), Soybean (soybean; Preemergence, 250 g ai/ha) | Plant response rating, Oat, Wild (oat, wild; 31 g ai/ha, scale 0 to 100 (0 no effect, 100 complete control)) | Plant response rating, Oat, Wild (oat, wild; 62 g ai/ha, scale 0 (no effect) to 100 (complete control)) | Plant response rating, Oat, Wild (oat, wild; 125 g ai/ha, scale 0 to 100 (0 no effect, 100 complete control)) | Plant response rating, Oat, Wild (oat, wild; 250 g ai/ha, scale 0 to 100 (0 no effect, 100 complete control)) | Plant response rating, Sedge, Umbrella (sedge, umbrella) | Plant response rating, Wheat (wheat (winter wheat); [1]) | Plant response rating, Wheat (wheat (winter wheat); [2]) | Plant response rating, Wheat (wheat (winter wheat); [3]) | Plant response rating, Wheat (wheat (winter wheat); [4]) | Plant response rating, Nutsedge, Yellow (nutsedge, yellow; [1]) | Plant response rating, Nutsedge, Yellow (nutsedge, yellow; [2]) | Plant response rating, Nutsedge, Yellow (nutsedge, yellow; [3]) | Plant response rating, Nutsedge, Yellow (nutsedge, yellow; [4]) | Nutsedge, Yellow plant response rating (nutsedge, yellow; [5]) | Plant response rating, Nutsedge, Yellow (nutsedge, yellow; [6]) | Plant response rating, Nutsedge, Yellow (nutsedge, yellow; [7]) | Plant response rating (scale of 0 to 100), Nutsedge, Yellow (nutsedge, yellow; Preemergence, 250 g ai/ha)
20: Plant response rating, Ragweed (ragweed; [1]) | Plant response rating, Ragweed (ragweed; [6]) | Plant response rating, Wheat (wheat; 125 g ai/ha, 0 to 100 scale, 0 no effect, 100 complete control) | Plant response rating, Waterhemp (waterhemp; [4]) | Plant response rating, Pigweed (pigweed; [9])
100: Plant response rating, Ducksalad (ducksalad)
35: Plant response rating, Wheat (wheat (winter wheat); [6])
70: Plant response rating, Oilseed Rape (oilseed rape; [7])
50: Pigweed plant response rating (0 to 100 scale, 0 is no effect, 100 is complete control) (pigweed; Postemergence, 500 g ai/ha)
15: Plant response rating, Waterhemp (waterhemp; [3])
30: Plant response rating, Pigweed (pigweed; [8]) | Plant response rating, Wheat (wheat (winter wheat); [7])
10: Wheat plant response rating (wheat (winter wheat); [5])
40: Plant response rating, Ragweed (ragweed; [3]) | Plant response rating, Pigweed (pigweed; preemergence, 500 g ai/ha)
90: Plant response rating (scale of 0 to 100), Oilseed Rape (oilseed rape; Preemergence, 250 g ai/ha) | Plant response rating, Foxtail, Giant (giant foxtail; [8]) | Foxtail, Giant plant response rating (0 to 100 scale, 0 is no effect, 100 is complete control) (giant foxtail; Postemergence, 500 g ai/ha) | Plant response rating, Foxtail, Giant (giant foxtail; preemergence, 500 g ai/ha)
80: Plant response rating (scale of 0 to 100), Ragweed (ragweed; Preemergence, 250 g ai/ha) | Plant response rating, Foxtail, Giant (giant foxtail; [9])
60: Wheat plant response rating (0 to 100 scale, 0 is no effect, 100 is complete control) (wheat; 500 g ai/ha) | Plant response rating, Waterhemp (waterhemp; [6])
75: Plant response rating, Waterhemp (waterhemp; [7])
55: Plant response rating, Ragweed (ragweed; [7])
45: Plant response rating, Ragweed (ragweed; [2]) | Plant response rating, Ragweed (ragweed; [4])
